What all share (format): cell-based
Series [1] in a line: Cytotoxicity assay (CellTiter-Glo cell viability, 72 hours). The following applies: African green monkey. The method in brief: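 Viability measured by CellTiter-Glo luminescence after 72-hour compound exposure (serial dilutions, DMSO control) of Vero monolayers seeded at 5000 cells/well in 10% FBS DMEM. IC50 values are the range of two biologically independent experiments, each run in duplicate.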

Series [2] has as its system Bacillus subtilis, ATCC 23857. The series can be described thus: Minimal inhibitory concentration assay (microbroth dilution). An outline of the steps:
(§1)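 Compound is serially diluted two-fold in the appropriate broth, and bacterial inoculum at about 10^5 cfu/mL is added so the highest final concentration is 200 μM. Plates stay overnight at 37 °C under aerobic conditions before growth is scored by eye.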
A general note: Dilution methods test growth across graded concentrations, often in twofold steps.

The test system of series [3] is Staphylococcus aureus, ATCC 29213. The description is as above. The following applies: ATCC29213, read-out: Minimal Inhibitory Concentrations S. aureus ATCC 29213. An outline of the steps: as §1
In series [4] the test system is Staphylococcus aureus, NRS70. Described as above. The method in brief: as §1
In series [5] the test system is Streptococcus pyogenes, ATCC 700294. The description is as above. An outline of the steps:
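Plates with two-fold compound dilution series in broth were incubated overnight, aerobically, at 37° C, following CLSI microdilution guidance.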

The mark [6] stands for this setting: Bacillus subtilis, ATCC23857; read-out: Minimal Inhibitory Concentrations B. subtilis ATCC 23857.
Where [7] appears, read: Staphylococcus aureus, NRS70; read-out: Minimal Inhibitory Concentrations S. aureus NRS70.
The mark [8] stands for this setting: Streptococcus pyogenes, ATCC700294; read-out: Minimal Inhibitory Concentrations S. pyogenes ATCC 700294.
The mark [9] stands for this setting: Vero cells, 72 hours, growth inhibition, read-out: Cytotoxicity IC50.
The mark [10] stands for this setting: Bacillus subtilis, ATCC23857, read-out: Minimal Inhibitory Concentrations B. subtilis ATCC 23857.
[11] abbreviates: Staphylococcus aureus, NRS70, read-out: Minimal Inhibitory Concentrations S. aureus NRS70.
Setting [12] is: Streptococcus pyogenes, ATCC700294, read-out: Minimal Inhibitory Concentrations S. pyogenes ATCC 700294.

≈ marks a conversion by molar mass, not a printed value. Where two headings read alike, the source gives them in different places. *1 amine or outer side, *2 acyl side, *3 side chain or, on linkers, in order; H or OH if unused. Where a SMILES comes first, the peptide text is derived from it. Bridges are numbered along the chain shown (N, C = ends). [ ]: non-standard residue; d: D form. The star is where a group is joined. NH(1,3-benzodioxol-5-yl) = c1cc2c(cc1N*)OCO2; Phe(3,5-F2) = N[C@@H](Cc1cc(F)cc(F)c1)C(=O)O; Morpholine(3S-CO) = O=C(O)[C@@H]1COCCN1; NH(4-Cl-2-F-phenyl) = Fc1cc(Cl)ccc1N*; Pro(4R-Me) = C[C@H]1CN[C@H](C(=O)O)C1; Hyp = O=C(O)[C@@H]1C[C@@H](O)CN1; NH(4-Et-phenyl) = CCc1ccc(N*)cc1; aThr = C[C@H](O)[C@H](N)C(=O)O; Pip = O=C(O)[C@@H]1CCCCN1; X2 = CN1CCc2ccc(N*)cc21; X1 = N#Cc1cc(N*)ccc1F; CO = O=C([*:1])[*:2]

On to `C[C@@H]1C[C@H]2C(=O)OC[C@H](NC(=O)[C@H](Cc3cc(F)cc(F)c3)NC(=O)Nc3ccc4c(c3)OCO4)C(=O)N3C[C@H](O)C[C@H]3C(=O)N3CCOC[C@H]3C(=O)N[C@@H](C)C(=O)N2C1` [Compound 318, (S)-2-(3-(benzo[d][1,3]dioxol-5-yl)ureido)-3-(3,5-difluorophenyl)-N-((6aS,8R,12S,15aS,17R,21S,23aS)-8-hydroxy-17,21-dimethyl-6,11,15,20,23-pentaoxooctadecahydro-6H,11H,15H-[1,4]oxazino[3,4-i]dipyrrolo[2,1-c:2′,1′-l][1]oxa[4,7,10,13]tetraazacyclo-hexadecin-12-yl)propanamide] ({NH(1,3-benzodioxol-5-yl)-CO}-[Phe(3,5-F2)]S[Hyp][Morpholine(3S-CO)]A[Pro(4R-Me)]; ester 2-C), for which, in series [1], the IC50 at 72 h is > 100 µM. The MIC in series [2] (setting [6]) is > 20 µM; in series [3], 20 µM (≈ 16.8 µg/mL); in series [4] (setting [7]) it was 20 µM (≈ 16.8 µg/mL); in series [5] (setting [8]) it was 0.625 µM (≈ 0.526 µg/mL).

`C[C@@H]1C[C@H]2C(=O)O[C@@H](C)[C@H](NC(=O)[C@H](Cc3cc(F)cc(F)c3)NC(=O)Nc3ccc4c(c3)OCO4)C(=O)N3C[C@H](O)C[C@H]3C(=O)N3CCOC[C@H]3C(=O)N[C@@H](C)C(=O)N2C1` [Compound 319, (S)-2-(3-(benzo[d][1,3]dioxol-5-yl)ureido)-3-(3,5-difluorophenyl)-N-((6aS,8R,12S,13S,15aS,17R,21S,23aS)-8-hydroxy-13,17,21-trimethyl-6,11,15,20,23-pentaoxooctadecahydro-6H,11H,15H-[1,4]oxazino[3,4-i]dipyrrolo[2,1-c:2′,1′-l][1]oxa[4,7,10,13]tetraazacyclo-hexadecin-12-yl)propanamide] ({NH(1,3-benzodioxol-5-yl)-CO}-[Phe(3,5-F2)][aThr][Hyp][Morpholine(3S-CO)]A[Pro(4R-Me)]; ester 2-C): the IC50 at 72 h in series [1] is > 100 µM. In addition, the MIC was 10 µM (≈ 8.56 µg/mL) in series [2] (setting [6]), 2.5 µM (≈ 2.14 µg/mL) in series [3], 5 µM (≈ 4.28 µg/mL) in series [4] (setting [7]) and 0.313 µM (≈ 0.268 µg/mL) in series [5] (setting [8]).

Take `CCc1ccc(NC(=O)N[C@@H](Cc2cc(F)cc(F)c2)C(=O)N[C@@H]2C(=O)N3C[C@H](O)C[C@H]3C(=O)N3CCOC[C@H]3C(=O)N[C@@H](C)C(=O)N3C[C@H](C)C[C@H]3C(=O)O[C@H]2C)cc1` [Compound 320, (S)-3-(3,5-difluorophenyl)-2-(3-(4-ethylphenyl)ureido)-N-((6aS,8R,12S,13S,15aS,17R,21S,23aS)-8-hydroxy-13,17,21-trimethyl-6,11,15,20,23-pentaoxooctadecahydro-6H,11H,15H-[1,4]oxazino[3,4-i]dipyrrolo[2,1-c:2′,1′-l][1]oxa[4,7,10,13]-tetraazacyclohexadecin-12-yl)propanamide] ({NH(4-Et-phenyl)-CO}-[Phe(3,5-F2)][aThr][Hyp][Morpholine(3S-CO)]A[Pro(4R-Me)]; ester 2-C): in series [1], the IC50 at 72 h is > 100 µM. Also, the MIC in series [2] (setting [6]) was 0.625 µM (≈ 0.525 µg/mL); in series [3] it was 0.156 µM (≈ 0.131 µg/mL); in series [4] (setting [7]), 0.156 µM (≈ 0.131 µg/mL); in series [5] (setting [8]), 0.039 µM (≈ 0.0328 µg/mL).

In the case of `C[C@@H]1C[C@H]2C(=O)O[C@@H](C)[C@H](NC(=O)[C@H](Cc3cc(F)cc(F)c3)NC(=O)Nc3ccc4c(c3)N(C)CC4)C(=O)N3CCC[C@H]3C(=O)N3CCCC[C@H]3C(=O)N[C@@H](C)C(=O)N2C1` [Compound 321, (S)-3-(3,5-difluorophenyl)-2-(3-(1-methylindolin-6-yl)ureido)-N-((2R,6S,8aS,14aS,20S,21S,23aS)-2,6,21-trimethyl-5,8,14,19,23-pentaoxooctadecahydro-1H,5H,14H,19H-pyrido[2,1-i]dipyrrolo[2,1-c:2′,1′-l][1]oxa[4,7,10,13]tetraazacyclo-hexadecin-20-yl)propanamide] ({X2-CO}-[Phe(3,5-F2)][aThr]P[Pip]A[Pro(4R-Me)]; ester 2-C), the IC50 at 72 h in series [1] (setting [9]) came to 1.39 ± 0.1 µM. Moreover, the MIC in series [2] (setting [10]) stood at 0.313 µM (≈ 0.266 µg/mL); in series [3] it was 0.313 µM (≈ 0.266 µg/mL); in series [4] (setting [11]), 0.156 µM (≈ 0.132 µg/mL); in series [5] (setting [12]), 0.313 µM (≈ 0.266 µg/mL).

Take `Cc1ccc(NC(=O)N[C@@H](Cc2cc(F)cc(F)c2)C(=O)N[C@H]2COC(=O)[C@@H]3C[C@@H](C)CN3C(=O)[C@H](C)NC(=O)C3CCCCN3C(=O)[C@@H]3C[C@@H](O)CN3C2=O)cc1` (stereo partly drawn) [Compound 323, (S)-3-(3,5-difluorophenyl)-N-((2R,6S,8aR,14aS,16R,20S,23aS)-16-hydroxy-2,6-dimethyl-5,8,14,19,23-pentaoxooctadecahydro-1H,5H,14H,19H-pyrido[2,1-i]dipyrrolo[2,1-c:2′,1′-l][1]oxa[4,7,10,13]tetraazacyclohexadecin-20-yl)-2-(3-(p-tolyl)ureido)propanamide]: the IC50 at 72 h in series [1] (setting [9]) was > 100 µM. The MIC amounted to 0.313 µM (≈ 0.253 µg/mL) in series [2] (setting [10]), 0.625 µM (≈ 0.506 µg/mL) in series [3], 0.625 µM (≈ 0.506 µg/mL) in series [4] (setting [11]) and 0.156 µM (≈ 0.126 µg/mL) in series [5] (setting [12]).

`C[C@@H]1C[C@H]2C(=O)O[C@@H](C)[C@H](NC(=O)[C@H](Cc3cc(F)cc(F)c3)NC(=O)Nc3ccc(F)c(C#N)c3)C(=O)N3CCC[C@H]3C(=O)N3CCCC[C@H]3C(=O)N[C@@H](C)C(=O)N2C1` [Compound 324, (S)-2-(3-(3-cyano-4-fluorophenyl)ureido)-3-(3,5-difluorophenyl)-N-((2R,6S,8aS,14aS,20S,21S,23aS)-2,6,21-trimethyl-5,8,14,19,23-pentaoxooctadecahydro-1H,5H,14H,19H-pyrido[2,1-i]dipyrrolo[2,1-c:2′,1′-l][1]oxa[4,7,10,13]tetraazacyclo-hexadecin-20-yl)propanamide] ({X1-CO}-[Phe(3,5-F2)][aThr]P[Pip]A[Pro(4R-Me)]; ester 2-C) gave an IC50 at 72 h in series [1] of 10.2 ± 0.5 µM. In addition, the MIC in series [2] (setting [6]) turned out to be 0.625 µM (≈ 0.523 µg/mL); in series [3], 0.313 µM (≈ 0.262 µg/mL); in series [4] (setting [7]) it was 0.313 µM (≈ 0.262 µg/mL); in series [5] (setting [8]), 1.25 µM (≈ 1.05 µg/mL).

Take `C[C@@H]1C[C@H]2C(=O)OC[C@H](NC(=O)[C@H](Cc3cc(F)cc(F)c3)NC(=O)Nc3ccc4c(c3)OCO4)C(=O)N3C[C@H](O)C[C@H]3C(=O)N3CCCCC3C(=O)N[C@@H](C)C(=O)N2C1` (stereo partly drawn) [Compound 325, (S)-2-(3-(benzo[d][1,3]dioxol-5-yl)ureido)-3-(3,5-difluorophenyl)-N-((2R,6S,8aR,14aS,16R,20S,23aS)-16-hydroxy-2,6-dimethyl-5,8,14,19,23-pentaoxooctadecahydro-1H,5H,14H,19H-pyrido[2,1-i]dipyrrolo[2,1-c:2′,1′-l][1]oxa[4,7,10,13]tetraazacyclo-hexadecin-20-yl)propanamide]: in series [1], the IC50 at 72 h is > 100 µM. In addition, the MIC is 2.5 µM (≈ 2.1 µg/mL) in series [2] (setting [6]), 1.25 µM (≈ 1.05 µg/mL) in series [3], 1.25 µM (≈ 1.05 µg/mL) in series [4] (setting [7]) and 0.156 µM (≈ 0.131 µg/mL) in series [5] (setting [8]).

`C[C@@H]1C[C@H]2C(=O)O[C@@H](C)[C@H](NC(=O)[C@H](Cc3cc(F)cc(F)c3)NC(=O)Nc3ccc(F)c(C#N)c3)C(=O)N3C[C@H](O)C[C@H]3C(=O)N3CCOC[C@H]3C(=O)N[C@@H](C)C(=O)N2C1` [Compound 326, (S)-2-(3-(3-cyano-4-fluorophenyl)ureido)-3-(3,5-difluorophenyl)-N-((6aS,8R,12S,13S,15aS,17R,21S,23aS)-8-hydroxy-13,17,21-trimethyl-6,11,15,20,23-pentaoxooctadecahydro-6H,11H,15H-[1,4]oxazino[3,4-i]dipyrrolo[2,1-c:2′,1′-l][1]oxa[4,7,10,13]tetraazacyclo-hexadecin-12-yl)propanamide] ({X1-CO}-[Phe(3,5-F2)][aThr][Hyp][Morpholine(3S-CO)]A[Pro(4R-Me)]; ester 2-C): the IC50 at 72 h in series [1] is > 100 µM. Also, the MIC was 20 µM (≈ 17.1 µg/mL) in series [2] (setting [6]), 10 µM (≈ 8.55 µg/mL) in series [3], 2.5 µM (≈ 2.14 µg/mL) in series [4] (setting [7]) and 1.25 µM (≈ 1.07 µg/mL) in series [5] (setting [8]).

For `C[C@@H]1C[C@H]2C(=O)O[C@@H](C)[C@H](NC(=O)[C@H](Cc3cc(F)cc(F)c3)NC(=O)Nc3ccc(Cl)cc3F)C(=O)N3C[C@H](O)C[C@H]3C(=O)N3CCCC[C@H]3C(=O)N[C@@H](C)C(=O)N2C1` [Compound 329, (S)-2-(3-(4-chloro-2-fluorophenyl)ureido)-3-(3,5-difluorophenyl)-N-((2R,6S,8aS,14aS,16R,20S,21S,23aS)-16-hydroxy-2,6,21-trimethyl-5,8,14,19,23-pentaoxooctadecahydro-1H,5H,14H,19H-pyrido[2,1-i]dipyrrolo[2,1-c:2′,1′-l][1]oxa[4,7,10,13]tetraazacyclo-hexadecin-20-yl)propanamide] ({NH(4-Cl-2-F-phenyl)-CO}-[Phe(3,5-F2)][aThr][Hyp][Pip]A[Pro(4R-Me)]; ester 2-C), the midpoint of inhibition in series [1], the IC50 at 72 h, lay at 24.5 ± 2.5 µM. Further, the MIC was found to be 0.039 µM (≈ 0.0336 µg/mL) in series [2] (setting [6]), 0.078 µM (≈ 0.0673 µg/mL) in series [3], 0.039 µM (≈ 0.0336 µg/mL) in series [4] (setting [7]) and 0.078 µM (≈ 0.0673 µg/mL) in series [5] (setting [8]).

What is called IC50 is the concentration that inhibits the measured activity by half.
